In patent US11370779B2, “Pharmaceutical composition for preventing or treating acute myeloid leukemia or metastatic breast cancer” (PELEMED CO., LTD., priority 2017, dated 2022):
Where a name gives a salt, the structure may show the parent alone.

Columns and labels:
FLT3 kinase = FLT3 kinase (Homo sapiens (Human), UniProt P36888); experiment: In vitro FLT3 kinase HTRF assay (Example 2); type: biochemical; conditions: Table 1; HTRF, recombinant FLT3 kinase domain, 500 μM ATP
Experimental: Inhibition of the FLT3 kinase activity was measured using homogeneous, time-resolved fluorescence (HTRF) assays. Recombinant proteins containing the FLT3 kinase domain were purchased from Carna biosciences (Japan). Optimal enzyme, ATP, and substrate concentrations were established using the HTRF KinEASE kit (Cisbio, France) according to the manufacturer's instructions. The FLT3 enzymes were mixed in sequence with diluted compounds and peptide substrates in a kinase reaction buffer (50 mM HEPES (pH 7.0), 500 μM ATP, 0.1 mM sodium orthovanadate, 5 mM MgCl2, 1 mM DTT, 0.01% bovine serum albumin (BSA), and 0.02% NaN3). After the addition of the reagents for detection, the TR-FRET signal was measured using a Victor multilabel reader (Perkin Elmer, Waltham, Mass., USA). […] JAK2, JAK3, cMET, and RET in vitro kinase assays were also performed using the HTRF assay.

MV4;11 cells = experiment: Cell viability, EZ-Cytox tetrazolium assay, MV4;11; type: cell-based, human; conditions: Homo sapiens, MV4-11, 72 hours; for IC50: Table 1; for GI50: read-out: GI50(nM) MV4;11
Experimental: The cultured cells were incubated at 3° C. with 5% CO2.
(§1) Cell viability was assessed by a tetrazolium-based assay using the EZ-Cytox Cell Viability Assay kit (DaeilLab, Korea). Briefly, 2,000 to 15,000 cells were plated in 96-well plates in 100 μl of medium. The next day, the cells were treated with compounds together with dimethyl sulfoxide (DMSO) as a negative control. Three days (72 hours) after the drug addition, 15 μl of the EZ-Cytox kit reagent was added to each well of the 96-well plate and then incubated at 37° C. in a humidified CO2 incubator for 4 hours. After incubation, the optical density (OD) was measured at a wavelength of 450 nm using a Victor multilabel reader (Perkin Elmer, Waltham, Mass., USA).

MDA-MB-231 = experiment: Cell viability, EZ-Cytox tetrazolium assay, MDA-MB-231; type: cell-based, human; conditions: Homo sapiens, MDA-MB-231; 72 hours
Experimental: MDA-MB-231 (metastatic breast cancer, ATCC HTB-26), Jurkat (human acute T lymphocytic leukemia, ATCC TIB-152), and K-562 (human chronic myelogenous leukemia, ATCC CCL-243) cells were cultured in RPMI-1640 (Sigma Co.). MCF7 (human breast adenocarcinoma, ATCC HTB-22) and PC-3 (human prostate adenocarcinoma, ATCC CRL-1435) cells were cultured in DMEM (Sigma Co.) medium supplemented with 10% fetal bovine serum and 1% penicillin/streptomycin. The cultured cells were incubated at 3° C. with 5% CO2.
as §1, with “USA). The IC50 was calculated by nonlinear regression using Prism version 5.01 (GraphPad, La Jolla, Calif., USA).” for “USA).”

Sequence of FLT3 kinase (P36888 610-943): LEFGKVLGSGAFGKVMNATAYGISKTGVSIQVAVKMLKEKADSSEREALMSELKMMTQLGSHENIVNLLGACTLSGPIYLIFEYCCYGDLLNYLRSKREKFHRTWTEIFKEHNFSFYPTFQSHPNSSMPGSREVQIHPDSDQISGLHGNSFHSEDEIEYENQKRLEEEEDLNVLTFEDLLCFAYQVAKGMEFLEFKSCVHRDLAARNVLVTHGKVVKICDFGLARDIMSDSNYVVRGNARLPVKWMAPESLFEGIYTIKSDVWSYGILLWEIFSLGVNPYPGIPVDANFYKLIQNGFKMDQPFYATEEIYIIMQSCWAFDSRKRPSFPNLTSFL

SMILES	IC50 (FLT3 kinase) [nM]	IC50 (MV4;11 cells) [nM]	GI50 (MV4;11 cells) [nM]	GI50 (MDA-MB-231) [nM]
COC(=O)c1ccc2c(c1)/C(=C1/Nc3ccccc3/C1=N\OCCBr)C(=O)N2 [Compound 2, Methyl (2Z,3E)-3-((2-bromoethoxy)imino)-2′-oxo-[2,3′-biindolinylidene]-5′-carboxylate]	19	51	–	–
COC(=O)c1ccc2c(c1)/C(=C1/Nc3ccccc3/C1=N\OCCN)C(=O)N2 [Compound 3, Methyl (2Z,3E)-3-((2-aminoethoxy)imino)-2′-oxo-[2,3′-biindolinylidene]-5′-carboxylate hydrochloride]	5	15	–	–
COC(=O)c1ccc2c(c1)/C(=C1/Nc3ccccc3/C1=N\OCCN1CCN(C)CC1)C(=O)N2 [Compound 5, Methyl (2Z,3E)-3-((2-(4-methylpiperazin-1-yl)ethoxy)imino)-2′-oxo-[2,3′-biindolinylidene]-5′-carboxylate dihydrochloride]	–	11	–	–
COC(=O)c1ccc2c(c1)/C(=C1/Nc3ccccc3/C1=N\OCCN1CCOCC1)C(=O)N2 [Compound 6, Methyl (2Z,3E)-3-((2-morpholinoethoxy)imino)-2′-oxo-[2,3′-biindolinylidene]-5′-carboxylate hydrochloride]	–	53	–	–
CN1CCN(CCO/N=C2/C(=C3/C(=O)Nc4ccc([N+](=O)[O-])cc43)Nc3ccc(O)cc32)CC1 [Compound 14, (2Z,3E)-5-hydroxy-3-((2-(4-methylpiperazin-1-yl)ethoxy)imino)-5′-nitro-[2,3′-biindolinylidene]-2′-one dihydrochloride]	–	–	50	29.1
NCCO/N=C1/C(=C2/C(=O)Nc3ccc([N+](=O)[O-])cc32)Nc2ccccc21 [Compound 15, (2Z,3E)-3-((2-aminoethoxy)imino)-5′-nitro-[2,3′-biindolinylidene]-2′-one hydrochloride]	–	–	–	> 1
O=C1Nc2ccc([N+](=O)[O-])cc2/C1=C1/Nc2ccccc2/C1=N\OCCN1CCNCC1 [Compound 16, (2Z,3E)-5′-nitro-3-((2-(piperazin-1-yl)ethoxy)imino)-[2,3′-biindolinylidene]-2′-one dihydrochloride]	–	–	7.01	74.3
O=C1Nc2ccc([N+](=O)[O-])cc2/C1=C1/Nc2ccc(F)cc2/C1=N\OCCN1CCNCC1 [Compound 17, (2Z,3E)-5-fluoro-5′-nitro-3-((2-(piperazin-1-yl)ethoxy)imino)-[2,3′-biindolinylidene]-2′-one dihydrochloride]	–	–	10.2	88.8
CN1CCN(CCO/N=C2/C(=C3/C(=O)Nc4ccc([N+](=O)[O-])cc43)Nc3ccc(F)cc32)CC1 [Compound 18, (2Z,3E)-5-fluoro-3-((2-(4-methylpiperazin-1-yl)ethoxy)imino)-5′-nitro-[2,3′-biindolinylidene]-2′-one dihydrochloride]	–	–	118	69.7
O=C1Nc2ccc([N+](=O)[O-])cc2/C1=C1/Nc2ccc(F)cc2/C1=N\OCCN1CCCCC1 [Compound 19, (2Z,3E)-5-fluoro-5′-nitro-3-((2-(piperidin-1-yl)ethoxy)imino)-[2,3′-biindolinylidene]-2′-one hydrochloride]	–	–	1.49	804
O=C1Nc2ccc([N+](=O)[O-])cc2/C1=C1/Nc2ccc(F)cc2/C1=N\OCCN1CCCC1 [Compound 20, (2Z,3E)-5-fluoro-5′-nitro-3-((2-(pyrrolidin-1-yl)ethoxy)imino)-[2,3′-biindolinylidene]-2′-one hydrochloride]	–	–	447	144
CN1CCN(CCO/N=C2/C(=C3/C(=O)Nc4ccc(F)cc43)Nc3ccc(F)cc32)CC1 [Compound 22, (2Z,3E)-5,5′-difluoro-3-((2-(4-methylpiperazin-1-yl)ethoxy)imino)-[2,3′-biindolinylidene]-2′-one dihydrochloride]	–	–	–	600
O=C1Nc2ccc(F)cc2/C1=C1/Nc2ccc(F)cc2/C1=N\OCCN1CCCCC1 [Compound 23, (2Z,3E)-5,5′-difluoro-3-((2-(piperidin-1-yl)ethoxy)imino)-[2,3′-biindolinylidene]-2′-one hydrochloride]	–	–	3.19	> 1
O=C1Nc2ccc(F)cc2/C1=C1/Nc2ccc(F)cc2/C1=N\OCCN1CCCC1 [Compound 24, (2Z,3E)-5,5′-difluoro-3-((2-(pyrrolidin-1-yl)ethoxy)imino)-[2,3′-biindolinylidene]-2′-one hydrochloride]	–	–	634	347
NC1CCN(CCO/N=C2/C(=C3/C(=O)Nc4ccc(F)cc43)Nc3ccc(F)cc32)CC1 [Compound 25, (2Z,3E)-3-((2-(4-aminopiperidin-1-yl)ethoxy)imino)-5,5′-difluoro-[2,3′-biindolinylidene]-2′-one dihydrochloride]	–	–	85.7	> 1
CN1CCN(CCO/N=C2/C(=C3/C(=O)Nc4ccccc43)Nc3ccccc32)CC1 [Compound 29, (2Z,3E)-3-((2-(4-methylpiperazin-1-yl)ethoxy)imino)-[2,3′-biindolinylidene]-2′-one dihydrochloride]	–	–	54.8	483
O=C1Nc2ccccc2/C1=C1/Nc2ccccc2/C1=N\OCCN1CCCCC1 [Compound 30, (2Z,3E)-3-((2-(piperidin-1-yl)ethoxy)imino)-[2,3′-biindolinylidene]-2′-one hydrochloride]	–	–	138	> 1
O=C1Nc2ccccc2/C1=C1/Nc2ccccc2/C1=N\OCCN1CCCC1 [Compound 31, (2Z,3E)-3-((2-(pyrrolidin-1-yl)ethoxy)imino)-[2,3′-biindolinylidene]-2′-one hydrochloride]	–	–	104	313
O=C1Nc2ccc(F)cc2/C1=C1/Nc2ccccc2/C1=N\OCCN1CCCCC1 [Compound 35, (2Z,3E)-5′-fluoro-3-((2-(piperidin-1-yl)ethoxy)imino)-[2,3′-biindolinylidene]-2′-one hydrochloride]	–	–	263	805
O=C1Nc2ccc(Cl)cc2/C1=C1/Nc2ccccc2/C1=N\OCCN1CCNCC1 [Compound 38, (2Z,3E)-5′-chloro-3-((2-(piperazin-1-yl)ethoxy)imino)-[2,3′-biindolinylidene]-2′-one dihydrochloride]	–	–	11	–
CN1CCN(CCO/N=C2/C(=C3/C(=O)Nc4ccc(Cl)cc43)Nc3ccccc32)CC1 [Compound 39, (2Z,3E)-5′-chloro-3-((2-(4-methylpiperazin-1-yl)ethoxy)imino)-[2,3′-biindolinylidene]-2′-one dihydrochloride]	–	–	37	–
O=C1Nc2ccc(Br)cc2/C1=C1/Nc2ccccc2/C1=N\OCCN1CCNCC1 [Compound 40, (2Z,3E)-5′-bromo-3-((2-(piperazin-1-yl)ethoxy)imino)-[2,3′-biindolinylidene]-2′-one dihydrochloride]	–	–	10	–
O=C1Nc2ccc(I)cc2/C1=C1/Nc2ccccc2/C1=N\OCCN1CCNCC1 [Compound 42, (2Z,3E)-5′-iodo-3-((2-(piperazin-1-yl)ethoxy)imino)-[2,3′-biindolinylidene]-2′-one dihydrochloride]	–	–	9	–
CN1CCN(CCO/N=C2/C(=C3/C(=O)Nc4ccc(I)cc43)Nc3ccccc32)CC1 [Compound 43, (2Z,3E)-5′-iodo-3-((2-(4-methylpiperazin-1-yl)ethoxy)imino)-[2,3′-biindolinylidene]-2′-one dihydrochloride]	–	–	32	–
COc1ccc2c(c1)/C(=C1/Nc3ccccc3/C1=N\OCCN1CCNCC1)C(=O)N2 [Compound 46, (2Z,3E)-5′-methoxy-3-((2-(piperazin-1-yl)ethoxy)imino)-[2,3′-biindolinylidene]-2′-one dihydrochloride]	–	–	17	–
COc1ccc2c(c1)/C(=C1/Nc3ccccc3/C1=N\OCCN1CCN(C)CC1)C(=O)N2 [Compound 47, (2Z,3E)-5′-methoxy-3-((2-(4-methylpiperazin-1-yl)ethoxy)imino)-[2,3′-biindolinylidene]-2′-one dihydrochloride]	–	–	7	–
